Results published in patent US20250186454A1, “METHODS FOR TREATING ABERRANT BEHAVIOR AND MOTOR ACTIVITY” (LAPKO INC, dba AFECTA PHARMACEUTICALS, priority 2023, published 2025).

Tests used:
[1] = system: patients with ASD; test: open-label observational trial, eight weeks, response scored using the ABC-C scale; format: in vivo, human
Description: In an open-label observational trial by an investigator, 11 patients with ASD were treated for eight weeks with molindone starting at 5 mg/day and the dosage increased by the patient and caregiver in 5 mg increments as tolerated by the subjects up to a maximum dose of 25 mg/day or until amelioration of the aberrant behaviors was seen. Patient response was scored using the ABC-C scale.

[2] = pharmacokinetic study of equivalent doses by gastric absorption compared to sublingual absorption; format: in vivo
Description: A study of equivalent doses of molindone administered by gastric absorption compared to sublingual absorption. […] Molindone is primarily, if not exclusively, metabolized by the liver (hepatic metabolism). The first metabolite of molindone obtained by liver metabolism is 3-ethyl-2-(hydroxymethyl)-5-[(morpholin-4-yl)methyl]-1,5,6,7tetrahydro-4H-indol-4-one. The level of this metabolite was also measured at the Cmax of the sublingual and gastric dosing regimens.

[3] = N=11, Week 8 vs baseline, p <0.0001

Structure (SMILES): CCc1c(C)[nH]c2c1C(=O)C(CN1CCOCC1)CC2 (stereo not drawn) [molindone, 3-ethyl-2-methyl-5-(morpholin-4-ylmethyl)-1,5,6,7-tetrahydroindol-4-one]
- body weight during the course of therapy (subjective responses from caregivers and subjects) ([1]; ASD patients, eight weeks): noticeable and desirable weight loss
- somnolence during the course of the study ([1]; ASD patients, eight weeks): none complained of increased somnolence
- ABC-C Total Score (0-174), Decrease from baseline (%) ([1]; N=11, Week 8 vs baseline, p 0.0001): 69.9%
- ABC-C Inappropriate speech (0-12), Decrease from baseline (%) ([1]; N=11, Week 8 vs baseline, p 0.0048): 77%
- ABC-C Lethargic/Withdrawn (0-48), Decrease from baseline (%) ([1]; N=11, Week 8 vs baseline, p 0.0069): 63.2%
- ABC-C Stereotypy (0-21), Decrease from baseline (%) ([1]; N=11, Week 8 vs baseline, p 0.0081): 72.8%
- ABC-C Hyperactivity/Noncompliance (0-48), Decrease from baseline (%) [1, 3]: 62.4%
- ABC-C Irratability (0-45), Decrease from baseline (%) [1, 3]: 76.6%
- ABC-C Scale Mean Score, Inappropriate speech (0-12), Week 8 ([1]; N=11 ASD patients, 5 up to 25 mg/day, baseline 9.6, p 0.0048): 2.2
- ABC-C Scale Mean Score, Stereotypy (0-21), Week 8 ([1]; N=11 ASD patients, 5 up to 25 mg/day, baseline 11.8, p 0.0081): 3.2
- ABC-C Scale Mean Score, Lethargic/Withdrawn (0-48), Week 8 ([1]; N=11 ASD patients, 5 up to 25 mg/day, baseline 16.5, p 0.0069): 6.4
- ABC-C Scale Mean Score, Hyperactivity/Noncompliance (0-48), Week 8 ([1]; N=11 ASD patients, 5 up to 25 mg/day, baseline 29.8, p <0.0001): 11.2
- ABC-C Scale Mean Score, Irratability (0-45), Week 8 ([1]; N=11 ASD patients, 5 up to 25 mg/day, baseline 35.6, p <0.0001): 8.3
- ABC-C Scale Mean Score, Total Score (0-174), Week 8 ([1]; N=11 ASD patients, 5 up to 25 mg/day, baseline 103.3, p 0.0001): 31.3
- reduction of symptoms in all five ABC-C categories, including stereotypy ([1]; during the eight-week study, all p values less than 0.05): significant improvement
- T1/2 ([2]; non-gastric dosing regimen compared to gastric dosing): longer
- area under the curve (AUC) ([2]; sublingual dosing compared to gastric dosing): better
- Cmax (highest plasma concentration of the drug) ([2]; sublingual dosing compared to gastric dosing, equivalent doses, FIG. 1): higher
